Results: paper PMC4961418, “A Selective Irreversible Inhibitor of Furin Does Not Prevent Pseudomonas Aeruginosa Exotoxin A-Induced Airway Epithelial Cytotoxicity” (PLoS ONE, 2016)
Side chains are listed from the residue outwards. Peptide text beside a SMILES is read from it. * marks the point of attachment. Biotin = O=C1N[C@H]2[C@H](CS[C@H]2CCCCC(=O)*)N1; X1 = N=C(N)NCCCC(N*)P(=O)(Oc1ccccc1)Oc1ccccc1; Palmitoyl = CCCCCCCCCCCCCCCC(=O)*; Ahx = NCCCCCC(=O)O

Tests used:
CuFi-1 epithelial cells = assay: PEA-induced epithelial cell toxicity (LDH cytotoxicity assay); type: cell-based, human; conditions: 2 μg/ml PEA, 24 h, CF airway epithelial cells
Procedure: The CuFi-1 cell line was derived from human airway epithelium of a CF patient (F508del/F508del) transformed with a reverse transcriptase component of telomerase, hTERT and human papillomavirus type 16 E6 and E7 genes. Cells were grown as submerged cultures using bronchial epithelial growth medium (BEBM including a supplement pack) containing: epidermal growth factor, hydrocortisone, bovine pituitary extract, transferrin, bovine insulin, triiodothyronine, epinephrine, retinoic acid, penicillin-streptomycin (0.025 μg/ml), gentamycin ([…]) and amphotericin (25 μg/ml).
Cytotoxicity was determined using the LDH-Cytotoxicity Colorimetric Assay Kit II (Bio Vision) in accordance with the instructions provided by the manufacturer. Addition of the supplied cell lysis solution to control wells was used to determine 100% cytotoxicity in each set of experiments.
Fig 4 Effect of furin inhibitors on PEA-induced epithelial cell toxicity. (A) Cell toxicity (%) induced by 2 μg/ml PEA (24 h) was measured in the presence or absence of furin I or QUB-F1. Data represent mean ± s.e.m. *P<0.05. (B) Airway epithelial cell surface furin-like activity was assayed upon application of the furin fluorogenic substrate (pERTKR) to cell cultures in the presence or absence of 10 μM furin I or QUB-F1.

matriptase = target: T1, matriptase (Homo sapiens, UniProt Q9Y5Y6); assay: Fluorogenic protease activity assay, matriptase; type: biochemical; conditions: 10 μM inhibitor, Boc-Gln-Ala-Arg-NH2Mec 50 μM, N = 3
T1 construct: purchased R&D Systems
T1 sequence (Q9Y5Y6 1-855): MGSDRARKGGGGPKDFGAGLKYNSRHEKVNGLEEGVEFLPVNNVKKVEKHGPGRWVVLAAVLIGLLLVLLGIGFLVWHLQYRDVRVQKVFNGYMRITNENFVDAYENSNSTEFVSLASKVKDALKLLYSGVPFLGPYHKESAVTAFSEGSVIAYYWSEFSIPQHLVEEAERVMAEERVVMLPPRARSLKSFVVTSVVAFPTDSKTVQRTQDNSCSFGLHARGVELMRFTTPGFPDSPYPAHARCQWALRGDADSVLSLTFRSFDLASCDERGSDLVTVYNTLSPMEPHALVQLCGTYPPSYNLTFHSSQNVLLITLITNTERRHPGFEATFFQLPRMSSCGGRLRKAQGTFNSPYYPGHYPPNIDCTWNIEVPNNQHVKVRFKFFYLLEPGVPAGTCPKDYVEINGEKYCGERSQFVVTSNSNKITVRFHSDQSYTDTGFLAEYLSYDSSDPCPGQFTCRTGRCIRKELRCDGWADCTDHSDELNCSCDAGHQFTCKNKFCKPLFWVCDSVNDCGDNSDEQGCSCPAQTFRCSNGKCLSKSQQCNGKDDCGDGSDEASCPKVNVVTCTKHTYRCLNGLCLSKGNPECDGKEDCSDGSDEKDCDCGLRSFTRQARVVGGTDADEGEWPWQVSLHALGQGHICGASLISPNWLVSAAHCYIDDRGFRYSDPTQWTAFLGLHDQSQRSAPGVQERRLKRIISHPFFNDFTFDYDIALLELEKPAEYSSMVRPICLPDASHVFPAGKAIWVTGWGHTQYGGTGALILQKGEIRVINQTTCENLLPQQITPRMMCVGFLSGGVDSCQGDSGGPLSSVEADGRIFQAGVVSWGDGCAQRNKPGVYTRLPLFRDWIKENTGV
Description: Recombinant human enzymes were sourced as follows: furin and matriptase (R&D Systems); prostasin (Sino Biological); trypsin and chymotrypsin (Sigma-Aldrich); factor Xa and neutrophil elastase (Merck Millipore) and proteinase-3 and cathepsin G (Elastin Products, Missouri). Fluorogenic substrates were sourced as follows: p-Glu-Arg-Thr-Lys-Arg-NH2Mec and Boc-Gln-Ala-Arg-NH2Mec (R&D Systems); Boc-Ile-Glu-Gly-Arg-NH2Mec (Bachem); Z-Gly-Gly-Arg-NH2Mec, MeOSuc-Ala-Ala-Pro-Val-NH2Mec and Suc-Ala-Ala-Pro-Phe-NH2Mec (Sigma-Aldrich). All chemicals and reagents for the synthesis of QUB-F1 were supplied by Sigma-Aldrich unless otherwise indicated. Fmoc-Lys(Boc)-SASRIN resin was sourced from Bachem. Fmoc-protected amino acids and HCTU were supplied by Merck Millipore.
Recombinant protease activities were assessed using the cognate fluorogenic substrates (final concentration 50 μM) as follows: trypsin (Z-Gly-Gly-Arg-NH2Mec), prostasin and matriptase (Boc-Gln-Ala-Arg-NH2Mec), factor Xa (Boc-Ile-Glu-Gly-Arg-NH2Mec), neutrophil elastase and proteinase 3 (MeO-Suc-Ala-Ala-Pro-Val-NH2Mec), chymotrypsin and cathepsin G (Suc-Ala-Ala-Pro-Phe-NH2Mec). The rate of substrate hydrolysis in the presence or absence of furin inhibitors was assessed by continuous recording at λex 360 nm, λem 480 nm, over a period of 60 minutes using a FLUOstar Optima microplate reader (BMG Labtech). […]

CCCCCCCCCCCCCCCC(=O)N[C@@H](CCCCNC(=O)CCCCCNC(=O)CCCC[C@@H]1SC[C@@H]2NC(=O)N[C@@H]21)C(=O)N[C@@H](CCCNC(=N)N)C(=O)N[C@H](C(=O)N[C@@H](CCCCN)C(=O)NC(CCCNC(=N)N)P(=O)(Oc1ccccc1)Oc1ccccc1)C(C)C (stereo partly drawn) [QUB-F1, N^α-Pal-N^ω-(Biotinyl-Ahx)-Lys-RVKR^P(OPh)2] (Palmitoyl-K([Ahx-Biotin])RVK-X1)
effect on PEA-induced epithelial cell toxicity (CuFi-1 epithelial cells): offered no protection
inhibition of matriptase (matriptase): did not
